Measured values as given in patent publication EP3628663A1, “ANTIVIRAL COMPOUNDS” (priority 2018, dated 2020).
Read-outs that look alike come from different tables or passages of the source.

Columns and labels:
HAd-C5-GFP = experiment: Fluorescent plaque forming assay of adenoviral propagation (virus spread); type: cell-based; settings: HEK293 cells
Method: Adenoviral propagation was quantified by fluorescent plaque forming assay with GFP expressing HAd-C5 vector in the presence of the compound as a measure of virus spread through multiple rounds of infection.
HEK293 cells were infected with 0.1 physical particles per cell (pp/cell) of E1-deficient GFP expressing HAd-C5-GFP vector for 24 hours followed by removal of the inoculums and overlay with 1% agarose supplemented with vehicle only (DMSO) or 5 µM of the compound of formula (IIIa).
Six days after infection, plaque sizes were measured by epifluorescence microscopy using Image J.
Cidofovir™, the standard clinical drug used against adenovirus infections in the clinic, is also included in this test.
The compounds were used at a concentration of 5 µM. Cidofovir was in particular used at even higher concentration, i.e. 10 and 20 µM.
DMSO was used as negative control.
Statistical analysis was carried out using unpaired Student t-test.

WW3-NEDD 4.1 peptide = WW3-NEDD 4.1 peptide (Homo sapiens, UniProt P46934); experiment: MicroScale thermophoresis (MST) binding to FAM-labelled WW3 peptide of NEDD4.1
Sequence of WW3-NEDD 4.1 peptide (P46934 834-878): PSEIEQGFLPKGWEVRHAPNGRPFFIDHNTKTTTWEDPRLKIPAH
Method: (§1) For the MicroScale Thermophoresis (MST) experiments 1 mg of each FAM-labeled WW3_Nedd.4.1 ([…] KIPAH = SEQ ID NO: 1) and WW3_Nedd.4.2 peptide ([…] […] = SEQ ID NO: 2) (FAM = Fluorescein amidite) was used at >80% purity.
(§2) MicroScale thermophoresis binding experiments were carried out with final 100 nM FAM-labelled WW3_Nedd.4.1 and WW3_Nedd.4.2 in binding buffer (1x PBS pH 7.4, 5 % DMSO, 0.1 % Pluronic F-127). The concentration range of the compound of formula (IIIa) is indicated here-after: Table 1
(§3) The MST analyses were performed at 40 % MST power, 100 % LED power in standard capillaries on a Monolith NT.115 blue/green device at 25°C (NanoTemper Technologies, Munich, Germany) in duplicate technical runs in the same capillary. Thermophoresis + Tjump was analysed. The recorded fluorescence was normalised to fraction bound (0 = unbound, 1 = bound), and processed using the GraphPad Prism® 6 software and fitted using the KD fit formula derived from the law of mass action.

WW3-NEDD 4.2 peptide = WW3-NEDD 4.2 peptide (Homo sapiens, UniProt Q96PU5); experiment: MicroScale thermophoresis (MST) binding to FAM-labelled WW3 peptide of NEDD4.2; settings: 100 nM FAM-labelled peptide, 1x PBS pH 7.4, 5 % DMSO, 0.1 % Pluronic F-127, 25°C
Sequence of WW3-NEDD 4.2 peptide (Q96PU5 with tags, fused parts or gaps): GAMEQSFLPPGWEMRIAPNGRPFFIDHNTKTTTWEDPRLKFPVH
Method: as §1, §2, §3

WW3-domain of NEDD4 = molecular target: T1, WW3-domain of NEDD4 (Homo sapiens, UniProt P46934); experiment: Solution NMR interaction study with synthetic WW3-domain peptide of NEDD4; type: binding; settings: equimolar amounts of compound and NEDD4 peptide
T1 construct: a peptide corresponding to the 45 amino acids of WW3-domain of NEDD4; made in house; host or cells: chemical synthesis
T1 sequence (P46934 834-878): as the sequence (P46934 834-878) above

protein VI = experiment: Ubiquitylation of RFP-tagged protein VI in NEDD4.2-GFP expressing cells (RFP-trap, western blot); type: cell-based; settings: increasing amounts (0, 2, 5, 10, 25 µM) for 2h; NEDD4.2-GFP cells
Method: Stably expressing NEDD4.2-GFP cells were transfected with an expression vector encoding RFP-tagged protein VI WT (including the PPxY targeted by NEDD4 ubiquitin ligases through WW-domains, which are the target of the compounds) or protein VI M1 (with the PPxY targeted by NEDD4 ubiquitin ligases through WW-domains mutated to PGAA) and treated with increasing amounts of the compound of formula (IIIa) for 2h. RFP stands for Red Fluorescent Protein.
Protein VI was immunoprecipitated from drug treated cells using RFP-trap and analyzed by western blotting with anti-ubiquitin antibodies.
(§4) Samples were analyzed by western blot using anti-protein VI antibodies described in Martinez et al., J Virol. 2015 Feb;89(4):2121-35.

recombinant NEDD4.2 = molecular target: T2, recombinant NEDD4.2 (Homo sapiens, UniProt Q96PU5); experiment: In vitro ubiquitylation of protein VI released from adenovirus particles with recombinant NEDD4.2; type: biochemical; settings: high concentrations (25 µM); recombinant NEDD4.2, 1h at 30°C
T2 sequence (Q96PU5 1-975): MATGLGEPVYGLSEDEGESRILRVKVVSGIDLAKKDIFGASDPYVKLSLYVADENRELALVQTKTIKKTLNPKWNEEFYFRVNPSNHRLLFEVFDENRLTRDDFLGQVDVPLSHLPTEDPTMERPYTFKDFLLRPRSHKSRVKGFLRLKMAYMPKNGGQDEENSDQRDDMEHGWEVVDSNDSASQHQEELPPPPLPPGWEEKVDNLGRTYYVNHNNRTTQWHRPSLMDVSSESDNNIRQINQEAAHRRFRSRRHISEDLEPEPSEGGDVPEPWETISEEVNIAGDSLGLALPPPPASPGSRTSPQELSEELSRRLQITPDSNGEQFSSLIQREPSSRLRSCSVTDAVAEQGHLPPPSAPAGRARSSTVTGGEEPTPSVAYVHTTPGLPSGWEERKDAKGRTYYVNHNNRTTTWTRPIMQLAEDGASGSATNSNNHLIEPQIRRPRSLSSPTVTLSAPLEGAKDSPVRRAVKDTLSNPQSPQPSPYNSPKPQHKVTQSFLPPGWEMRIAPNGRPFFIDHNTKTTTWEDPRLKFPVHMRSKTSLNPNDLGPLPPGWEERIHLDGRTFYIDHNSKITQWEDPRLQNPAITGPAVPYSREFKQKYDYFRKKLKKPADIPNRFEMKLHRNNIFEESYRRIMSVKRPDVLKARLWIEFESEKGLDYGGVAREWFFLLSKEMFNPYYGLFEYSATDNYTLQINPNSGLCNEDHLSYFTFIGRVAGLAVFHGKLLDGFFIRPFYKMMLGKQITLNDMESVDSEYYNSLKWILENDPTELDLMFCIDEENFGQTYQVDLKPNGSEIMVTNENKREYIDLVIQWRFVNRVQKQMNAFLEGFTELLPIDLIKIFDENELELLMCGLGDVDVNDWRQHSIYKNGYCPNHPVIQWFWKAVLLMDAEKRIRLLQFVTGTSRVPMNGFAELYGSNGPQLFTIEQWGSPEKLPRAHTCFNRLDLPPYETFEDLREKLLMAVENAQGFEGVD
Method: For in vitro ubiquitylation reactions, purified Adenovirus particles were treated with mild heat to release protein VI as previously described in Wodrich et al. (2010 - PLoS Pathog. 6, e1000808), and in vitro ubiquitylation reactions were supplemented with recombinant NEDD4.2 and DMSO or the compound of formula (IIIa) and carried out for 1h at 30°C or left on ice.
as §4

GFP-NEDD4.1 = experiment: Localization of GFP-NEDD4.1 in U2OS cells (fluorescence microscopy); type: cell-based, Homo sapiens; settings: U2OS cells stably expressing GFP-NEDD4.1, versus DMSO
Text: (§5) U2OS cells (ATCC® HTB-96™) (Homo sapiens bone osteosarcoma) stably expressing low levels of GFP-NEDD4.1 or GFP-NEDD4.2 were generated through single copy flp-FRT integration (Bosse et al., Methods Mol Biol. 2013;1064:153-69.) and treated with the compound of formula (IIIa) or the control DMSO.

GFP-NEDD4.2 = experiment: Localization of GFP-NEDD4.2 in U2OS cells (fluorescence microscopy); type: cell-based, Homo sapiens; settings: U2OS cells stably expressing GFP-NEDD4.2, versus untreated cells
Text: as §5

NEDD4.2-GFP = experiment: Association of incoming fluorescently labelled adenoviruses with NEDD4.2-GFP (fluorescence microscopy); type: cell-based, Homo sapiens; settings: 10µM; 15-30 min p.i.
Method: GFP-NEDD4.2 expressing cells were infected in absence or presence of 10µM of the compound of formula (IIIa) with fluorescently labelled viruses and association between viruses and NEDD4.2-GFP was quantified using fluorescence microscopy.

U2OS cells = experiment: Ubiquitin proteome by diGly peptide enrichment and LC-MS/MS; type: cell-based, Homo sapiens; settings: 24h, compared to DMSO treated control cells
Method: U2OS Cells were treated for 24h with two different concentrations of the compound of formula (IIIa) (2µM and 10µM) and were subjected to Mass Spec. analysis following diGly peptide enrichment to obtain changes in the Ubiquitin proteome.
Briefly, cells were collected following treatment (as above) and protein extracts generated using acetone precipitation. Total proteins were trypsin-digested and the resulting peptides purified through anti di-Gly affinity chromatography prior being sequenced by LC-MS/MS.

Row | Compound | inhibition of adenoviral propagation (plaque size) (HAd-C5-GFP; 10 µM and 20 µM (highest non-cytotoxic concentrations), plaque size) | anti-adenoviral activity (plaque size) (HAd-C5-GFP; 5 µM, 0.1 pp/cell HAd-C5-GFP, plaque size six days after infection, compared to DMSO) | Kd (WW3-NEDD 4.1 peptide; MST, 100 nM FAM-labelled peptide, 1x PBS pH 7.4, 5 % DMSO, 0.1 % Pluronic F-127, 25°C, read-out: WW3-NEDD 4.1 peptide KD) [µM] | higher affinity to the WW3 peptide domain target compared to the Imidazole control (WW3-NEDD 4.1 peptide; ratio of MST KD values, WW3-NEDD4.1 and WW3-NEDD4.2) | Kd (WW3-NEDD 4.2 peptide) [µM] | interaction with the NEDD4 peptide (NMR chemical shift change) (WW3-domain of NEDD4) | ubiquitylation of protein VI in cells (protein VI) | protein VI ubiquitylation in vitro (recombinant NEDD4.2) | NEDD4.1 localization (GFP-NEDD4.1) | NEDD4.2 localization (GFP-NEDD4.2) | recruitment of NEDD4.2 to incoming AdV particles (NEDD4.2-GFP) | ubiquitylation of cellular proteins (U2OS cells; 2µM) | ubiquitylation of cellular proteins (U2OS cells; 10µM) | Kd (WW3-NEDD 4.1 peptide) [µM]
1 | Nc1ccn(C[C@@H](CO)OCP(=O)(O)O)c(=O)n1 [Cidofovir, reference compound] | did not show significant inhibition | – | – | – | – | – | – | – | – | – | – | – | – | –
2 | O=C(/C=C(\C(=O)c1ccc(Cl)cc1Cl)n1ccnc1)c1ccc(Cl)cc1Cl [Compound of formula (IIIa), (E)-1,4-Bis(2,4-dichlorophenyl)-2-(1H-imidazol-1-yl)but-2-ene-1,4-dione] | – | effective anti-adenoviral activity | 0.058 ± 0.022 | 100-1000 fold | 0.12 ± 0.039 | interacts with the NEDD4 peptide | gradually impaired ubiquitylation of protein VI | prevented protein VI ubiquitylation in vitro | became largely immobile and relocated to a perinuclear region | accumulated strongly at cell-cell-contact sites as well as in a distinct perinuclear region | prevented the recruitment of NEDD4.2 | protein ubiquitylation is reduced or increased for several cellular proteins | preferentially increases ubiquitylation of several cellular proteins | –
3 | c1c[nH]cn1 [Imidazole (control), Imidazole, reference compound] | – | – | – | – | 90.4 ± 38.6 | – | – | – | – | – | – | – | – | 88.9 ± 28.4
